In general, LC50 refers to the concentration that kills 50% of the test population. The LogP is a log measure of how a compound divides between an organic and an aqueous phase.

For data set [1], the system named is Pyrenophora oryzae. The experiment in a line: Example F: in vitro-Test with Pyrenophora oryzae. Type of data set: cell-based. Particulars: compound alone.
A short description of data set [2]: Example G: in vivo ecotoxicity screening test on fish (Danio rerio). As to conditions: Danio rerio, in vivo, other: exposure of embryos in water containing the compound. As for the experimental part: with ECxi the Effect Concentration (EC) of each chemical i (in ppm) causing x % effect on the ecotoxicity test endpoint.
For each compound combination, the predicted ECx value is calculated. It is then compared to an experimentally measured value. The ratio of predicted versus measured effect for the combination (thereafter called the Model Deviation Ratio or MDR) is then calculated.
The environmental effect of the compound combinations was measured experimentally in laboratory ecotoxicity screening studies with fish (Danio rerio). […] Mortality was recorded after 48 h and 96 h for each tested concentration and a reference control. […] Then, the MDR values were calculated.
This concentrate is then diluted with water to the desired a.i. concentration, leading to a maximal solvent concentration of 0.5%. by weight The compounds alone and the combinations were tested for five increasing concentrations comprised between 0.01 and 1000 ppm (mg/1) a.i., (e.g. 0.1, 1.0, 10 and 100 ppm a.i). For the combinations, compounds A and B were mixed in a weight ratio of 5:1 to 1:5 and five increasing concentrations were tested for each ratio.

Data set [3] relates to causal agent of soybean rust (Phakopsora pachyrhizi). Put plainly: Example C: in vivo preventive test on Phakopsora test (soybeans). Particulars: compound alone.
In data set [4] the test system is causal agent of apple scab (Venturia inaequalis). Put plainly: Example E: in vivo preventive test on Venturia test (apples). Particulars: compound alone.
Data set [5] deals with Alternaria solani. Put plainly: Example A: in vivo preventive test on Alternaria test (tomatoes). As to conditions: compound alone, evaluated 3 days after inoculation. The protocol:
(§1) The test is evaluated 3 days after the inoculation.

Data set [6] has as its system Sphaerotheca fuliginea. The experiment in a line: Example D: in vivo preventive test on Sphaerotheca test (cucumbers). Particulars: compound alone.
Data set [7] has as its system Colletotrichum coccodes. Put plainly: Example B: in vivo preventive test on Colletotrichum test (tomatoes). Particulars: compound alone. As for the experimental part:
as §1

A short description of data set [8]: Measurement of Log P values by HPLC on reversed phase columns (EEC directive 79/831 Annex V.A8). In kind it is physicochemical.
Experimental: Measurement of Log P values was performed according to EEC directive 79/831 Annex V.A8 by HPLC (High Performance Liquid Chromatography) on reversed phase columns with the following methods:
Data set [9] relates to Septoria tritici. The experiment in a line: Example F: in vitro-Test with Septoria tritici. As to conditions: compound alone. Type of data set: cell-based.
The mark [10] stands for this setting: method [a]: LC-UV, acidic range, 0.1% formic acid in water and acetonitrile as eluent, Table 1, compounds of formula (I).

Where “and” joins values, the source holds several entries; their conditions need not be identical. Equal values may be shown once. Read-outs that look alike come from different tables or passages of the source. Marks after values point to notes of the source that are not given here.

With `CON=C(C(=O)OC)c1ccccc1CON=C(C)c1cccc(C(F)(F)F)c1` [15.047 trifloxystrobin], the Efficacy % is 17% in [1] (0.04 ppm) and 86% in [1] (0.2 ppm). Regarding `CC(C)c1ccc(Cl)cc1CN(C(=O)c1c(C(F)F)nn(C)c1F)C1CC1` [Example 2.038, N-(5-chloro-2-isopropylbenzyl)-N-cyclopropyl-3-(difluoromethyl)-5-fluoro-1-methyl-1H-pyrazole-4-carboxamide], the LC50 at 48 h in data set [2] amounted to 0.51 µg/mL. The LC50 at 96 h in [2] was 0.35 µg/mL. The “Efficacy in % found” value in data set [3] (1 ppm a.i.), in data set [3] (2 ppm a.i.) and in [3] (4 ppm a.i.) was 0% in each case. Turning to `O=C(Cc1ccccc1)N/C(=N\OCC1CC1)c1c(C(F)(F)F)ccc(F)c1F` [Example 15.008, cyflufenamid], in [2], the LC50 at 48 h stood at 9.71 µg/mL and the LC50 at 96 h stood at 5.2 µg/mL. In the case of `O=C(NCCc1ncc(C(F)(F)F)cc1Cl)c1ccccc1C(F)(F)F` [2.005 fluopyram], the “Efficacy in % found” value in [3] (5 ppm a.i.), in data set [3] (10 ppm a.i.) and in data set [3] (20 ppm a.i.) was 0% each time. For `OC(Cc1ccccc1Cl)(Cn1nc[nH]c1=S)C1(Cl)CC1` (centres unmarked) [Example 1.018, prothioconazole], in data set [2], the LC50 at 48 h came out at 9.49 µg/mL and the LC50 at 96 h stood at 3.16 µg/mL. Regarding `CC(C)C1CCC(Cc2ccc(Cl)cc2)C1(O)Cn1cncn1` (centres unmarked) [Example 1.012, ipconazole], in [2], the LC50 at 48 h came out at 13.8 µg/mL and the LC50 at 96 h worked out at 6.57 µg/mL. For `O=C(Cc1ccccc1)N/C(=N\OCC1CC1)c1c(C(F)(F)F)ccc(F)c1F` [15.008 cyflufenamid], the “Efficacy in % found” value in [4] (1 ppm a.i.) was determined as 0%; in [4] (2 ppm a.i.) it was 0%; in [4] (4 ppm a.i.), 8%. On to `CON=C(C(=O)OC)c1ccccc1CON=C(C)c1cccc(C(F)(F)F)c1` [Example 3.020, trifloxystrobin], for which, in [2], the LC50 at 48 h was 0.4 µg/mL and the LC50 at 96 h amounted to 0.24 µg/mL. In the case of `CC(C)(C)C(O)(CCc1ccc(Cl)cc1)Cn1cncn1` (centres unmarked) [Example 1.021, tebuconazole], in data set [2], the LC50 at 48 h came out at 19.7 µg/mL and the LC50 at 96 h amounted to 19.7 µg/mL.

On to propineb [5.018 propineb], for which the “Efficacy in % found” value in data set [3] (12.5 ppm a.i.) is 0%; in [3] (25 ppm a.i.), 0%; in [3] (50 ppm a.i.), 40%; in data set [5] (12.5 ppm a.i.), 0%; in data set [5] (25 ppm a.i.) it was 8%; in [5] (50 ppm a.i.), 50%.

For `CC(C)C1CCC(Cc2ccc(Cl)cc2)C1(O)Cn1cncn1` (centres unmarked) [1.012 ipconazole], the “Efficacy in % found” value in [6] (2.5 ppm a.i.), in data set [6] (5 ppm a.i.) and in [6] (10 ppm a.i.) was 0% in each case. With `N#Cc1c[nH]cc1-c1cccc2c1OC(F)(F)O2` [Example 13.001, fludioxonil], in data set [2], the LC50 at 48 h is 0.91 µg/mL and the LC50 at 96 h turned out to be 0.89 µg/mL. As for `N#Cc1c(Cl)c(Cl)c(Cl)c(C#N)c1Cl` [5.004 chlorothalonil, chlorothalonil], the “Efficacy in % found” value in [3] (12.5 ppm a.i.) is given as 0%; in data set [3] (25 ppm a.i.) it was 0%; in [3] (50 ppm a.i.), 30%; in data set [7] (12.5 ppm a.i.) it was 0%; in [7] (25 ppm a.i.), 0%; in data set [7] (50 ppm a.i.) it was 0%. Further, the “Efficacy in % found” value in data set [5] (12.5 ppm a.i.) stood at 0%; in data set [5] (25 ppm a.i.) it was 0%; in [5] (50 ppm a.i.), 15%. Regarding `OC(Cc1ccc(Cl)cc1F)(Cn1cncc1Cl)C1(Cl)CC1` (single isomer, unassigned) [Example I-113], the LogP in data set [8] is 2.54^[a]. Same read-out and setting: as for `Cc1cncn1CC(O)(Cc1cccnc1Cl)C1(Cl)CC1` (centres unmarked) [Example I-10], the figure is 1.22^[a]; as for `N#Cc1cncn1CC(O)(Cc1cc(Cl)ncc1Cl)C1(Cl)CC1` (racemic) [Example I-56], 2.62^[a].

On to `Cc1nn(C)c(F)c1C(=O)Nc1ccccc1C(C)CC(C)C` (centres unmarked) [2.017 penflufen], for which the “Efficacy in % found” value worked out at 0% in data set [3] (5 ppm a.i.); 8% in data set [3] (10 ppm a.i.); 60% in [3] (20 ppm a.i.); 18% in [4] (5 ppm a.i.); 26% in data set [4] (10 ppm a.i.); 23% in [4] (20 ppm a.i.).

As to `N#Cc1cncn1CC(O)(Cc1ccccc1Cl)CC1CC1` (racemic) [Example I-84], the LogP in [8] was 2.84^[a].

Take `CC(C)(C)[C@@H](O)[C@@H](Cc1ccc(Cl)cc1)n1cncn1` (racemic) [Example 1.015, paclobutrazol]: in data set [2], the LC50 at 48 h came to 99.8 µg/mL and the LC50 at 96 h stood at 56.5 µg/mL. Turning to `CCCOc1nc2ccc(I)cc2c(=O)n1CCC` [13.004 proquinazid], the “Efficacy in % found” value in data set [6] (25 ppm a.i.) was 90%; in [6] (50 ppm a.i.) it was 100%; in data set [6] (100 ppm a.i.), 100%. Moreover, the Efficacy % was 0% in data set [9] (4 ppm); 37% and 40% in data set [9] (20 ppm). Regarding `COc1cncn1CC(O)(Cc1ccccc1F)C1(Cl)CC1` (racemic) [Example I-35], the LogP in [8] is 1.67^[a]. In the case of `O=C(Nc1ccccc1)N(Cc1ccc(Cl)cc1)C1CCCC1` [Example 4.005, pencycuron], in data set [2], the LC50 at 48 h was greater than 200 µg/mL and the LC50 at 96 h was greater than 200 µg/mL.

Consider `OC(Cc1ccccc1F)(Cn1cncc1Cl)C1(Cl)CC1` (centres unmarked) [Example I-32], for which the LogP in data set [8] was 2.07^[a].

As for `CC(C)(C)CC(O)(Cc1ccccc1Cl)Cn1cncc1C#N` (racemic) [Example I-83], the LogP in data set [8] was 3.55^[a]. Still for that read-out and setting: as for `N#Cc1cncn1CC(O)(Cc1ccc(F)c(F)c1F)C1CCC1` (centres unmarked) [Example I-104], the figure is 2.78^[a]. For `OC(Cc1ccccc1Cl)(Cn1cncc1Cl)C1(Cl)CC1` (centres unmarked) [Example I-02], the LogP in [8] (setting [10]) is 2.32; in [8] (method [c]: LC-UV, acidic range, 0.1% phosphoric acid and acetonitrile as eluent, Table 1), 2.00. As for `N#Cc1cncn1CC(O)(Cc1ccccc1Cl)C1(F)CC1` (racemic) [Example I-98], the LogP in data set [8] was 2.53^[a]. For `N#Cc1cncn1CC(O)(Cc1cc(F)cc(F)c1)C1(Cl)CC1` (centres unmarked) [Example I-156], in data set [8], the LogP is 2.86^[a].

With `N#Cc1cncn1CC(O)(Cc1ccccc1I)C1(Cl)CC1` (centres unmarked) [Example I-166], the LogP in data set [8] is 3.13^[a]. Turning to `OC(Cc1ccc(F)cc1)(Cn1cncc1Cl)C1(Cl)CC1` (centres unmarked) [Example I-158], the LogP in [8] is 2.13^[a]. On to `OC(Cc1cc(Cl)ncc1Cl)(Cn1cncc1Cl)C1(Cl)CC1` (centres unmarked) [Example I-17], for which, in data set [8], the LogP was 2.18^[a]. `C=CCOC(Cc1ccc(Cl)cc1F)(Cn1cncc1Cl)C1(Cl)CC1` (centres unmarked) [Example I-123]: the LogP in [8] is 3.31^[a]. Regarding `OC(Cn1cncc1Cl)(C(F)c1ccccc1F)C1(Cl)CC1` (centres unmarked) [Example I-28], the LogP in [8] is 2.01^[a].

In the case of `OC(Cc1cccnc1Cl)(Cn1cncc1Cl)C1(Cl)CC1` (centres unmarked) [Example I-07], the LogP in data set [8] was 1.57^[a]. For `N#Cc1cncn1CC(O)(C(F)c1ccccc1Cl)C1(Cl)CC1` (centres unmarked) [Example I-24], the LogP in data set [8] is 2.82^[a]. With `O=C(Cc1ccccc1)c1cncn1CC(O)(Cc1ccccc1)C1(Cl)CC1` (centres unmarked) [Example I-169], the LogP in data set [8] is 3.56^[a]. As to `N#Cc1cncn1CC(O)(Cc1ccnnc1Cl)C1(Cl)CC1` (centres unmarked) [Example I-168], in data set [8], the LogP is 1.59^[a]. On to `OC(Cc1cccc(Cl)c1Cl)(Cn1cncc1Cl)C1(Cl)CC1` (racemic) [Example I-66], for which the LogP in data set [8] was 2.69^[a]. The same measure, in the same setting: as for `Cc1cncn1CC(O)(Cc1ccccc1Cl)C1(Cl)CC1` (centres unmarked) [Example I-03], the figure is 1.72^[a].

With `OC(Cc1ccc(F)cc1Cl)(Cn1cncc1Cl)C1(Cl)CC1` (centres unmarked) [Example I-08], in data set [8], the LogP is 2.47^[a]. Same read-out and setting: under `OC(Cc1ccccc1Cl)(Cn1cncc1C(F)(F)F)C1(Cl)CC1` (centres unmarked) [Example I-15] stands 3.63^[a]; under `CSc1cncn1CC(O)(Cc1ccccc1Cl)C1(Cl)CC1` (centres unmarked) [Example I-22], 2.08^[a].

On to `Cc1ccc(CC(O)(Cn2cncc2Cl)C2(Cl)CC2)c(C)c1` (racemic) [Example I-68], for which, in data set [8], the LogP is 2.69^[a]. On the same count and under the same terms, under `OC(Cn1cncc1Br)(C(F)c1ccccc1Cl)C1(Cl)CC1` (centres unmarked) [Example I-23] stands 2.32^[a].

Consider `N#Cc1cncn1CC(O)(Cc1ccc(-c2ccccc2)cc1)C1(Cl)CC1` (racemic) [Example I-63], for which the LogP in data set [8] (setting [10]) is 3.68^[a].

As for `CC(C)C(O)(Cc1ccc(F)c(F)c1F)Cn1cncc1C#N` (centres unmarked) [Example I-105], the LogP in data set [8] is 2.78^[a]. As to `Cc1cncn1CC(O)(C(F)c1ccccc1Cl)C1(Cl)CC1` (centres unmarked) [Example I-13], the LogP in data set [8] was 1.75^[a].

The record behind these values is patent US20190223437A1, “ACTIVE COMPOUND COMBINATIONS COMPRISING A 5-SUBSTITUTED IMIDAZOLE DERIVATIVE” (BAYER CROPSCIENCE AKTIENGESELLSCHAFT, priority 2016, published 2019).
